Assay results taken from patent US20220324835A1 (Nurix Therapeutics, Inc., priority 2018, published 2022).

Key:
Cbl-b [1] = molecular target: T1, Cbl-b (Homo sapiens, UniProt Q13191); assay: Cbl-b inhibition assay (Cbl-b activity assay, FRET, Biological Example 1; 100 mM NaCl, 60 nM Src kinase); type: biochemical; details: upper bound stated in text lists; read-out: IC50 values in the Cbl-b inhibition assay of Biological Example 1
How it was run: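 Inhibitor activity is measured as reduced terbium-to-fluorescein FRET between streptavidin-terbium on biotinylated Cbl-b and Bodipy-fluorescein ubiquitin carried by an irreversible UbcH5B-Ub conjugate, binding of which depends on Src phosphorylation of Cbl-b.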

Cbl-b [2] = molecular target: T1, Cbl-b; assay: Cbl-b activity assay (Cbl-b inhibition assay), TR-FRET of Cbl-b interaction with UbcH5B-Ub; type: biochemical; details: assay buffer with 100 mM NaCl, 60 nM Src kinase; read-out: Cbl-b activity IC50
How it was run: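 TR-FRET readout of Cbl-b binding to Bodipy-fluorescein N-terminally labeled Ub conjugated to UbcH5B C85K, measured with compound present. After compound incubation, 60 nM Src kinase with 1 mM ATP and 5 mM MgCl2 (final) was added for 1.5 h, then a further 1 h incubation; asterisked values used 50 mM NaCl buffer and 30 nM Src.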

T-cell [3] = assay: CD25 cell surface staining on T-cells co-stimulated with anti-CD3 and anti-CD28 antibody (Biological Example 2); type: cell-based, human; details: Homo sapiens, T-cell, primary human total T-cells, baseline = anti-CD3/anti-CD28 stimulated cells without inhibitor, read-out: CD25 staining, Anti-CD3/Anti-CD28 stimulation, fold change over baseline; for fold induction at 0.3 µM: 0.3 μM compound; for fold induction at 1 µM: 1 μM compound
How it was run: (§1)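 No assay protocol given; T-cells stimulated with anti-CD3 alone or anti-CD3 plus anti-CD28, with or without Cbl-b inhibitor. Activation read as IL-2 secretion or CD25 surface staining, expressed as fold over baseline from uninhibited cells […].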

T-cell [4] = assay: IL-2 secretion from T-cells co-stimulated with anti-CD3 and anti-CD28 antibody (Biological Example 2); type: cell-based, human; details: Homo sapiens, T-cell, primary human total T-cells, baseline = anti-CD3/anti-CD28 stimulated cells without inhibitor, read-out: IL-2 secretion, Anti-CD3/Anti-CD28 stimulation, fold change over baseline; for fold induction at 0.3 µM: 0.3 μM compound; for fold induction at 1 µM: 1 μM compound
How it was run: as §1

T-cell [5] = assay: IL-2 secretion from T-cells stimulated with anti-CD3 antibody alone (Biological Example 2); type: cell-based; details: 1 μM compound, primary human total T-cells, read-out: IL-2 secretion, Anti-CD3 stimulation, fold change over baseline
T-cell [6] = assay: CD25 cell surface staining on T-cells stimulated with anti-CD3 antibody alone (Biological Example 2); type: cell-based; details: 1 μM compound, primary human total T-cells, baseline = anti-CD3/anti-CD28 stimulated cells without inhibitor, read-out: CD25 staining, Anti-CD3 stimulation, fold change over baseline

T1 sequence (Q13191 36-427): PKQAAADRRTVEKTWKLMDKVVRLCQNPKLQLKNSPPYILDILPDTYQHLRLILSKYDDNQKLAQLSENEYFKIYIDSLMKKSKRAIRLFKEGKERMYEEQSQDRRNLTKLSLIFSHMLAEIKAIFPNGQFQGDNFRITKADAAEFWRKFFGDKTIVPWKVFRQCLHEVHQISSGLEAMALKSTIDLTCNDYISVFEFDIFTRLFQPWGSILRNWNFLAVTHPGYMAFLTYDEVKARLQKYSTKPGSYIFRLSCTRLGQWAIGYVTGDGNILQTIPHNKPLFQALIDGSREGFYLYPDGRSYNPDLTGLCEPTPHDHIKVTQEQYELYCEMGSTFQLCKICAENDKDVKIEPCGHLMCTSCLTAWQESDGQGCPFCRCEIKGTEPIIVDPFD

SMILES	IC50 (Cbl-b [1]) [nM]	IC50 (Cbl-b [2]) [nM]	fold induction at 0.3 µM (T-cell [3])	fold induction at 1 µM (T-cell [3])	fold induction at 0.3 µM (T-cell [4])	fold induction at 1 µM (T-cell [4])	fold induction at 1 µM (T-cell [5])	fold induction at 1 µM (T-cell [6])
Cc1conc1CC1(c2cccc(NC(=O)c3cc(CN4CC[C@H](O)C4)nc(C4CC4)n3)c2)COC1 [Compound 507, 2-cyclopropyl-6-{[(3S)-3-hydroxypyrrolidin-1-yl]methyl}-N-(3-{3-[(4-methyl-1,2-oxazol-3-yl)methyl]oxetan-3-yl}phenyl)pyrimidine-4-carboxamide]	≤ 100	< 100	1.31 to 1.5	1.31 to 1.5	> 7.5	> 7.5	> 0.201	> 1
Cc1conc1CC1(c2cccc(NC(=O)c3cc(CN4CCC5(CC5)C4)nc(C4CC4)n3)c2)COC1 [Compound 508, 6-{5-azaspiro[2.4]heptan-5-ylmethyl}-2-cyclopropyl-N-(3-{3-[(4-methyl-1,2-oxazol-3-yl)methyl]oxetan-3-yl}phenyl)pyrimidine-4-carboxamide]	≤ 100	< 100	1.31 to 1.5	1.31 to 1.5	> 7.5	> 7.5	> 0.201	> 1
Cc1cc(C(=O)Nc2cccc(C3(Cc4nocc4C)COC3)c2)nc(C2CC2)n1 [Compound 509, 2-cyclopropyl-6-methyl-N-(3-{3-[(4-methyl-1,2-oxazol-3-yl)methyl]oxetan-3-yl}phenyl)pyrimidine-4-carboxamide]	≤ 100	< 100	1.31 to 1.5	1.31 to 1.5	> 7.5	> 7.5	> 0.201	> 1
Cc1cc(C(=O)Nc2cccc(C(C)(C)Cc3nncn3C)c2)nc(C2CC2)n1 [Compound 511, 2-cyclopropyl-6-methyl-N-{3-[2-methyl-1-(4-methyl-1,2,4-triazol-3-yl)propan-2-yl]phenyl}pyrimidine-4-carboxamide]	≤ 100	< 100	1.31 to 1.5	1.31 to 1.5	5 to 7.5	> 7.5	0.101 to 0.15	0.801 to 1
Cn1cnnc1C(F)(F)[C@](C)(F)c1cccc(NC(=O)c2cc(CN3CC[C@H](F)C3)nc(C3CC3)n2)c1 [Compound 512, 2-cyclopropyl-6-{[(3S)-3-fluoropyrrolidin-1-yl]methyl}-N-{3-[(2R)-1,1,2-trifluoro-1-(4-methyl-1,2,4-triazol-3-yl)propan-2-yl]phenyl}pyrimidine-4-carboxamide]	≤ 100	< 100	1.01 to 1.3	1.01 to 1.3	2.51 to 5	5 to 7.5	0.051 to 0.1	0.801 to 1
Cn1cnnc1CC1(c2cccc(N3Cc4c(cc(OC5CC5)cc4C(F)(F)F)C3=O)c2)COC1 [Compound 513, 6-cyclopropoxy-2-(3-{3-[(4-methyl-1,2,4-triazol-3-yl)methyl]oxetan-3-yl}-phenyl)-4-(trifluoromethyl)-3H-isoindol-1-one]	≤ 100	< 100	1.01 to 1.3	1.01 to 1.3	1.01 to 2.5	2.51 to 5	0.151 to 0.2	> 1
Cn1cnnc1CC1(c2cccc(N3Cc4c(cc(OC5CNC5)cc4C(F)(F)F)C3=O)c2)COC1 [Compound 514, 6-(azetidin-3-yloxy)-2-(3-{3-[(4-methyl-1,2,4-triazol-3-yl)methyl]oxetan-3-yl}phenyl)-4-(trifluoromethyl)-3H-isoindol-1-one]	≤ 100	< 100	1.01 to 1.3	1.01 to 1.3	1.01 to 2.5	1.01 to 2.5	0.051 to 0.1	0.801 to 1
Cc1cc(C(=O)Nc2cccc(-c3c(-c4nncn4C)cnn3C)c2)nc(C2CC2)n1 [Compound 522, 2-cyclopropyl-6-methyl-N-(3-(l-methyl-4-(4-methyl-4H-1,2,4-triazol-3-yl)-1H-pyrazol-5-yl)phenyl)pyrimidine-4-carboxamide]	≤ 300	100 to 300	1.01 to 1.3	1.01 to 1.3	1.01 to 2.5	1.01 to 2.5	0.101 to 0.15	0.601 to 0.8
Cn1cnnc1-c1cnn(C)c1-c1cccc(N2Cc3c(cccc3C(F)(F)F)C2=O)c1 [Compound 523, 2-(3-(l-methyl-4-(4-methyl-4H-1,2,4-triazol-3-yl)-1H-pyrazol-5-yl)phenyl)-4-(trifluoromethyl)isoindolin-1-one]	≤ 300	100 to 300	1.01 to 1.3	1.01 to 1.3	1.01 to 2.5	1.01 to 2.5	0.051 to 0.1	0.601 to 0.8
Cc1cc(C(=O)Nc2cccc(C3(Cc4nncn4C)CC(F)(F)C3)c2)nc(C2CC2)n1 [Compound 526, 2-cyclopropyl-N-(3-(3,3-difluoro-1-((4-methyl-4H-1,2,4-triazol-3-yl)methyl)cyclobutyl)phenyl)-6-methylpyrimidine-4-carboxamide]	≤ 100	< 100	1.01 to 1.3	1.01 to 1.3	5 to 7.5	> 7.5	> 0.201	> 1
Cn1cnnc1CC1(c2cccc(N3Cc4c(cccc4C(F)(F)F)C3=O)c2)CC(F)(F)C1 [Compound 527, 2-(3-(3,3-difluoro-1-((4-methyl-4H-1,2,4-triazol-3-yl)methyl)cyclobutyl)-phenyl)-4-(trifluoromethyl)isoindolin-1-one]	≤ 100	< 100	1.01 to 1.3	1.01 to 1.3	2.51 to 5	5 to 7.5	> 0.201	> 1
Cn1cnnc1CC1(c2cccc(N3Cc4c(cc(CN5CCCC(F)(F)CC5)cc4C(F)(F)F)C3=O)c2)COC1 [Compound 528, 6-((4,4-difluoroazepan-1-yl)methyl)-2-(3-(3-((4-methyl-4H-1,2,4-triazol-3-yl)methyl)oxetan-3-yl)phenyl)-4-(trifluoromethyl)isoindolin-1-one]	≤ 100	< 100	1.01 to 1.3	1.01 to 1.3	> 7.5	> 7.5	> 0.201	> 1
Cn1cnnc1CC1(c2cccc(N3Cc4c(cc(CC5CCCO5)cc4C(F)(F)F)C3=O)c2)COC1 (stereo not drawn) [Compound 529, 2-(3-(3-((4-methyl-4H-1,2,4-triazol-3-yl)methyl)oxetan-3-yl)phenyl)-6-((THF-2-yl)methyl)-4-(trifluoromethyl)isoindolin-1-one]	≤ 100	< 100	1.01 to 1.3	1.01 to 1.3	2.51 to 5	> 7.5	0.101 to 0.15	0.801 to 1
CN1CCC(=O)C(Cc2cc3c(c(C(F)(F)F)c2)CN(c2cccc(C4(Cc5nncn5C)COC4)c2)C3=O)C1 (stereo not drawn) [Compound 531, 6-((l-methyl-4-oxopiperidin-3-yl)methyl)-2-(3-(3-((4-methyl-4H-1,2,4-triazol-3-yl)methyl)oxetan-3-yl)phenyl)-4-(trifluoromethyl)isoindolin-1-one]	≤ 100	< 100	1.01 to 1.3	1.01 to 1.3	> 7.5	> 7.5	> 0.201	> 1
Cc1conc1CC1(c2cccc(N3Cc4c(cc(CN5CCC6(CC6)C5)cc4C(F)(F)F)C3=O)c2)COC1 [Compound 535, 6-{5-azaspiro[2.4]heptan-5-ylmethyl}-2-(3-{3-[(4-methyl-1,2-oxazol-3-yl)methyl]oxetan-3-yl}phenyl)-4-(trifluoromethyl)-3H-isoindol-1-one]	≤ 100	< 100	1.31 to 1.5	1.31 to 1.5	> 7.5	> 7.5	> 0.201	> 1
